# Data taken from paper PMC5346723, “Delivery of a peptide-drug conjugate targeting the blood brain barrier improved the efficacy of paclitaxel against glioma” (Oncotarget, 2016).
# Peptide text beside a SMILES is read from it. * marks the point of attachment. Biotin = O=C1N[C@H]2[C@H](CS[C@H]2CCCCC(=O)*)N1
# Legend:
# [1] = system: U87 glioblastoma cells; assay: MTT assay; format: cell-based, human; settings: 1 × 10^5 cells/100 μl/well, 96-well, 37°C, sample concentration for the table not stated (0.1-2.5 mg/mL tested), absorbance 570 nm
# Procedure: The cytotoxicity of ANG, ANG-TAT, ANG-PTX and ANG-TAT-PTX were determined using the 3-[4,5-dimethylthiazol-2-yl]-2,5-diphenyl tetrazolium bromide (MTT) assay. Human U87 glioblastoma cell (1×10^5 cells/100 μl per well) were cultured in 96-well plates at 37°C in 5% CO2. Aqueous solutions of the samples were dissolved in culture medium at final concentrations of 0.1, 0.5, 1, and 2.5 mg/mL. After incubation for 24 and 48 hours, the MTT solution (in 2 mg/mL phosphate-buffered saline) was added, the plates were incubated for 4 hours, and the cells were lysed with 50% N, N-dimethylformamide containing 20% sodium dodecyl sulfate (pH 4.5). Absorbance at 570 nm was measured for each well using a SpectraMax M5 (Molecular Devices, Sunnyvale, CA USA). The absorbance of control cells was taken as 100% viability, and the values of the treated cells were calculated as a percentage of the control.
# [2] = system: U87 glioblastoma brain tumor tissue; assay: Brain extraction of biotin labelled peptides after tail vein injection in mice with intracerebral U87 tumors; format: in vivo, CD-1 nude mice; settings: 50 μg/kg, brain removed 15 min after injection, tumor implanted right hemisphere, biotin quantitative kit, P<0.05
# Procedure: Biotin ANG and biotin ANG-TAT (50 μg/kg body weight) were injected into the tail vein of CD-1 nude mice carrying intracerebral implants of U87 glioblastoma cells. Fifteen minutes after injection the mice were killed, and the brains were surgically removed. The brain tissues were dissected and maintained in cold saline containing protease inhibitors until processing. To compare normal and tumor brain tissue, the right hemisphere (implanted hemisphere) was compared with the left hemisphere (non-implanted hemisphere). To extract biotin ANG and biotin ANG-TAT, tissues were mechanically homogenized in homogenization buffer (0.1 M Tris–HCl, pH 5.0, 50 mM sucrose, 0.003% Tween-80, and protease inhibitor cocktail) on ice. Acetonitrile (ACN) 100% was added to a final concentration of 65% (v/v). The mixture was stirred for 10 min in a cold room and then centrifuged at 3000 r.p.m. for 5 min. Acetonitrile supernatants were collected and dried in a rotative evaporator and finally freeze-dried. The concentration of biotin ANG and biotin ANG-TAT in the samples was determined using biotin quantitative kit from Elabsciences, Inc (Shanghai, China).
# The U87 cell line was used to assess peptide uptake in an animal model of glioma. Cells suspension were prepared at a final concentration of 1×10^4 cells/ml in PBS and kept on ice until injection. […]
smiles,measurement,setting,value
"CC(=O)O[C@H]1C(=O)[C@@]2(C)[C@H]([C@H](OC(=O)c3ccccc3)[C@]3(O)C[C@H](OC(=O)[C@H](O)[C@@H](NC(=O)c4ccccc4)c4ccccc4)C(C)=C1C3(C)C)[C@]1(OC(C)=O)CO[C@@H]1C[C@@H]2O [Free PTX, Paclitaxel]","MTT assay of ANG-TAT-PTX in tumor cells, 24h","[1]; 5% CO2, 24 h incubation",20.53±2.21
same,"MTT assay of ANG-TAT-PTX in tumor cells, 48h","[1]; 5% CO2, 48 h incubation",42.36±2.35
C[C@@H](O)[C@H](N)C(=O)N[C@@H](Cc1ccccc1)C(=O)N[C@@H](Cc1ccccc1)C(=O)N[C@@H](Cc1ccc(O)cc1)C(=O)NCC(=O)NCC(=O)N[C@@H](CO)C(=O)N[C@@H](CCCNC(=N)N)C(=O)NCC(=O)N[C@@H](CCCCN)C(=O)N[C@@H](CCCNC(=N)N)C(=O)N[C@@H](CC(N)=O)C(=O)N[C@@H](CC(N)=O)C(=O)N[C@@H](Cc1ccccc1)C(=O)N[C@@H](CCCCNC(=O)CCCC[C@@H]1SC[C@@H]2NC(=O)N[C@@H]21)C(=O)N[C@H](C(=O)N[C@@H](CCC(=O)O)C(=O)N[C@@H](CCC(=O)O)C(=O)N[C@@H](Cc1ccc(O)cc1)C(=O)NCC(=O)N[C@@H](CCCNC(=N)N)C(=O)N[C@@H](CCCCN)C(=O)N[C@@H](CCCCN)C(=O)N[C@@H](CCCNC(=N)N)C(=O)N[C@@H](CCCNC(=N)N)C(=O)N[C@@H](CCC(N)=O)C(=O)N[C@@H](CCCNC(=N)N)C(=O)N[C@@H](CCCNC(=N)N)C(=O)N[C@@H](CCCNC(=N)N)C(=O)N1CCC[C@H]1C(=O)N1CCC[C@H]1C(=O)N[C@@H](CCC(N)=O)C(=O)N[C@@H](CCC(N)=O)C(=O)O)[C@@H](C)O [biotin ANG-TAT] (H-TFFYGGSRGKRNNFK(Biotin)TEEYGRKKRRQRRRPPQQ-OH),Amount extracted from tumor tissue relative to biotin ANG,[2],1.8 fold
